According to US9205129B2, “Methods of treatment and screening assays for HIF-1α regulation” (University of Rochester, priority 2009, dated 2015):
Peptide text beside a SMILES is read from it. * marks the point of attachment. Cbz = O=C(OCc1ccccc1)*

Legend:
[1] = system: mouse HIF-1α (Myc-HIF-6×His-V5); test: Western blot of V5-tagged mouse HIF-1α expressed in N2A neuroblastoma line; format: cell-based; settings: N2A cells, 24 hours post-transfection (FIG. 7A)
Method: (§1) FIGS. 7A-C illustrate in vitro characterization and purification of HIF-1α cleavage product. […] Effects of MKP overexpression were tested by co-expressing either empty plasmid (pSG5) or vector expressing wildtype MKP-1 (pSG5-MKPwt; compare lanes 1 vs 2 & 3). Parallel samples were also treated with the proteosome inhibitor MG132 to determine whether sub fragments could be stabilized. Full-length and c-terminal fragments were identified using the carboxy-terminal V5 tag. FIG. 7B depicts optimization of expression conditions for human HIF-V5-6×His. Full-length and the proteolytic cleavage form of human HIF-1α are observed when expressed in the mouse N2A line. Other bands are shown as present in both samples and are cross reactive contaminants with V5 antibody. FIG. 7C illustrates affinity purification of the c-terminal HIF-1α fragment using the 6×His tag resin. N2A cells were transfected with the empty (pUB6-MCS) or HIF-expressing plasmids (pUb6-hHIF) and exposed to MG132 to induce fragment accumulation.
Cell lysates were obtained by rinsing monolayers with ice-cold PBS×1 followed by the addition of RIPA buffer containing both protease and phosphatase inhibitor cocktails (Sigma-Aldrich, St. Louis, Mo.). Samples were boiled in Laemmeli buffer and electrophoresed under reducing conditions on polyacrylamide gels. […]

[2] = system: human HIF-1α (HIF-V5-6×His); test: Western blot of human HIF-1α fusion expressed in N2A line; format: cell-based; settings: human HIF-1α fusion in N2A line treated with MG132 (FIG. 7B)
Method: as §1
The addition of MKPwt reduced overall levels of both full-length and C-terminal fragments. […] Bands correlating to full length (approximately 110 kDa) and the c-terminal fragment (running at approximately 48 kDa) were isolated from polyacrylamide gels and subjected to LC-MS/MS. […]

HIF-1α (myc-HIF-V5) = test: Cycloheximide pulse-chase / Western blot of myc-HIF-V5 in transfected HN33 cells; format: cell-based, mouse
Method: Cell lysates were obtained by rinsing monolayers with ice-cold PBS×1 followed by the addition of RIPA buffer containing both protease and phosphatase inhibitor cocktails (Sigma-Aldrich, St. Louis, Mo.). Samples were boiled in Laemmeli buffer and electrophoresed under reducing conditions on polyacrylamide gels. Proteins were transferred to PVDF membranes and blocked in TBS-T ([…] Tris-HCl, pH 8.0, 0.9% NaCl, and 0.1% Tween-20™) containing 5% non-fat dry milk for 1 h at room temperature. Antibodies used in this study included: NeuN (Chemicon, Temecula, Calif.; 1:500), GFP, HIF-1α (Novus Biologicals, NB-100-449 and NB-100-131, Littleton, Colo.), TUJ1 & MKP-1 (Santa Cruz Biologicals, San Diego, Calif.; 1:500) Caspase 9, cleaved caspase-3, -9, -12, and cleaved PARP (CST, Danvers, Mass.). Blots were exposed to HRP conjugated secondary antibodies (Santa Cruz Biologicals, CA) prior to chemiluminescent detection (Amersham). To resolve molecular weight changes in HIF-1α, crude lysates were run on 15% PAGE gels.
The cDNA for mouse HIF-1α was generated by RT-PCR using total cDNA from HN33.11 cultures using Superscript III according to the manufacturer's instructions using the random hexamer method (Invitrogen, Carlsbad, Calif.). PCR was performed using forward (5′-[…]-3′ (SEQ ID NO:1)) and reverse (5′-TCAG-[…]-3′ (SEQ ID NO:2)) primers as described (Chun et al., “A New HIF-1 Alpha Variant Induced by Zinc Ion Suppresses HIF-1-Mediated Hypoxic Responses,” J. Cell Sci. 114:4051-61 (2001), which is hereby incorporated by reference in its entirety), and the cDNA was sub-cloned to pCDNA3.1 and sequenced in its entirety. This sequence was sub-cloned by PCR using high fidelity polymerase and both the forward primer (5′-GCGGGATCCA […] GAA-3′ (SEQ ID NO:3)) containing a BamHI site followed by a Kozak consensus sequence and the Myc epitope tag and the reverse primer (5′-ggggcggccgcTAA CTTGATCCAAAGC […]-3′ (SEQ ID NO:4)) containing the Not I site allowing in frame ligation with the V5-6×His tag in pUB6-V5-6×HIS (Invitrogen). […]

HIF-1α = settings: effect of lambda phosphatase, compared with MEK inhibitor; cited from earlier work

Row | Compound | detection of V5-reactive C-terminal fragment of HIF-1α [1] | formation of c-terminal HIF-1α fragment [2] | induction of LMW-HIF-1α species (HIF-1α (myc-HIF-V5); FIG. 4D legend, HN33 lysates, CHX pulse-chase and MG132) | effect on MKP-1 mediated destabilization of HIF-1α (HIF-1α (myc-HIF-V5); HN33 cells transfected with dual-tagged vector, normoxic, cycloheximide pulse chase (FIG. 4D)) | accumulation of intermediate myc-HIF-V5 species (HIF-1α (myc-HIF-V5); HN33 cells, independent of MKP-1 levels (FIG. 4D, double asterisk)) | reduction of HIF-1α complex doublet to a single 103 kDa band (HIF-1α)
1 | CC(C)C[C@@H](C=O)NC(=O)[C@H](CC(C)C)NC(=O)[C@H](CC(C)C)NC(=O)OCc1ccccc1 [MG132] (Cbz-Leu-Leu-Leu-aldehyde) | detected only after treatment | produced the expected c-terminal HIF-1α fragment | inducing several LMW-HIF-1α species | negate the destabilizing effect of MKP-1 | enhanced the accumulation | –
2 | COc1cccc(-c2cc(=O)c3ccccc3o2)c1N [PD98059] | – | – | – | – | – | effect mimicked
